Laboratory results from patent publication US10781211B2, “Spirocycle compounds and methods of making and using same” (Lundbeck La Jolla Research Center, Inc., priority 2016, dated 2020).

Key:
Assay type in all cases: in vivo
Details in all cases: 5 mg/kg oral gavage
MAGL = MAGL (Mus musculus (Mouse), UniProt O35678); assay: Mouse brain proteomes from inhibitor treated mice (oral gavage, sacrifice 4 h after administration, ABPP analysis)
Description: (§1) Preparation of Mouse Brain Proteomes from Inhibitor Treated Mice.
(§2) Inhibitors were administered to wild-type C57Bl/6J by oral gavage in a vehicle, e.g. PEG400/Ethanol/PBS (7/2/1). Each animal was sacrificed 4 h following administration and brain proteomes were prepared and analyzed according to previously established methods (See Niphakis, M. J., et al. (2011) ACS Chem. Neurosci. and Long, J. Z., et al. Nat. Chem. Biol. 5:37-44). Data from this assay is shown in Table 2 (% inhibition at 5 mg/kg).

FAAH = FAAH (Mus musculus (Mouse), UniProt O08914); assay: Mouse brain proteomes from inhibitor treated mice (oral gavage, sacrifice 4 h after administration, ABPP analysis), FAAH
Sequence of FAAH (O08914 whole entry): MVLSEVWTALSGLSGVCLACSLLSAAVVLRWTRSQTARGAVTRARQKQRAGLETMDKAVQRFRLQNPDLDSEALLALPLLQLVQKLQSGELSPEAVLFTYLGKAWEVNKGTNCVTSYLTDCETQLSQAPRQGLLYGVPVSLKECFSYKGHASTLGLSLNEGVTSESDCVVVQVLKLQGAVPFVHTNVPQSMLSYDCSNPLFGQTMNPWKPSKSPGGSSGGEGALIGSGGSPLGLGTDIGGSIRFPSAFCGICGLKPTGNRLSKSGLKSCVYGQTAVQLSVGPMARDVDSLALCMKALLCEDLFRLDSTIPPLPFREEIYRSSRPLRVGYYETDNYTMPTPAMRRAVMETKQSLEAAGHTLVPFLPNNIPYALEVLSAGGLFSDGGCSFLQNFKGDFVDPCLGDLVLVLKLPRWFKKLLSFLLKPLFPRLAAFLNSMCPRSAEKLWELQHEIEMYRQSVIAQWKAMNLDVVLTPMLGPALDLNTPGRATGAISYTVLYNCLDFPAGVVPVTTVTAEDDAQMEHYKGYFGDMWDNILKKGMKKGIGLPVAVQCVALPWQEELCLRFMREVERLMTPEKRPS
Description: as §1, §2

ABHD6 = ABHD6 (Mus musculus (Mouse), UniProt Q8R2Y0); assay: Mouse brain proteomes from inhibitor treated mice (oral gavage, sacrifice 4 h after administration, ABPP analysis), ABHD6
Sequence of ABHD6 (Q8R2Y0 whole entry): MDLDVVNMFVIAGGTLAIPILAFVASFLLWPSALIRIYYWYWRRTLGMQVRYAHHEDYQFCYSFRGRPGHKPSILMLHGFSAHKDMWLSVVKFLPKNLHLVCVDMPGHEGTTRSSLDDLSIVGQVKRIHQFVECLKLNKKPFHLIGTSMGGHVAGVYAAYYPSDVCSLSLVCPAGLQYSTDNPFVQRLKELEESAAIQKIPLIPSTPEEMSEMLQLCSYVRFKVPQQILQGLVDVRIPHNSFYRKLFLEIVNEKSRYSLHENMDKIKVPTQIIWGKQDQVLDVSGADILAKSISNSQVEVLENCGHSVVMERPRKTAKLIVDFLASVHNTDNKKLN
Description: as §1, §2

Sequence of MAGL (O35678 whole entry): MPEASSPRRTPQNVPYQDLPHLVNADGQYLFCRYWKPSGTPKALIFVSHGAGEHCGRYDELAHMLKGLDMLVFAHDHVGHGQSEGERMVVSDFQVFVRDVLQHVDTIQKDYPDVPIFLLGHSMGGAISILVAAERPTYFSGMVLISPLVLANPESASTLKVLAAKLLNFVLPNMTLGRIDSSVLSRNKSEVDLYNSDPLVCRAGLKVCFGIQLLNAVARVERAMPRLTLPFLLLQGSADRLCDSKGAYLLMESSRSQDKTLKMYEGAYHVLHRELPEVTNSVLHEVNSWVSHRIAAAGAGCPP

SMILES	MAGL % Inh 5 mg/kg (mouse) (MAGL)	FAAH % Inh 5 mg/kg (mouse) (FAAH)	ABHD6 % Inh 5 mg/kg (mouse) (ABHD6)
O=C(OC(C(F)(F)F)C(F)(F)F)N1CCC2(CCCN2Cc2ccc3c(c2)COC3)CC1 [Example 151, 1,1,1,3,3,3-Hexafluoropropan-2-yl 1-((1,3-dihydroisobenzofuran-5-yl)methyl)-1,8-diazaspiro[4.5]decane-8-carboxylate]	### (### is ≥ 75%)	–	–
O=C(O)C1CCN(c2cc(Cl)cc(CN3CCCC34CCN(C(=O)OC(C(F)(F)F)C(F)(F)F)CC4)c2)CC1 [Example 122, 1-(3-Chloro-5-((8-(((1,1,1,3,3,3-hexafluoropropan-2-yl)oxy)carbonyl)-1,8-diazaspiro[4.5]decan-1-yl)methyl)phenyl)piperidine-4-carboxylic acid]	### (### is ≥ 75%)	–	–
Cc1ccc(CN2CCCC23CCN(C(=O)OC(C(F)(F)F)C(F)(F)F)CC3)cc1C(F)(F)F [Example 180, 1,1,1,3,3,3-Hexafluoropropan-2-yl 1-(4-methyl-3-(trifluoromethyl)benzyl)-1,8-diazaspiro[4.5]decane-8-carboxylate]	### (### is ≥ 75%)	–	–
O=C(OC(C(F)(F)F)C(F)(F)F)N1CCC2(CCCN2Cc2ccc(C(F)(F)F)cc2N2CCC(F)(F)CC2)CC1 [Example 90, 1,1,1,3,3,3-Hexafluoropropan-2-yl 1-(2-(4,4-difluoropiperidin-1-yl)-4-(trifluoromethyl)benzyl)-1,8-diazaspiro[4.5]decane-8-carboxylate]	–	# (# is < 25%)	# (# is < 25%)
CC(=O)NC1CCN(c2cc(Cl)ccc2CN2CCCC23CCN(C(=O)OC(C(F)(F)F)C(F)(F)F)CC3)CC1 [Example 104, 1,1,1,3,3,3-Hexafluoropropan-2-yl 1-(2-(4-acetamidopiperidin-1-yl)-4-chlorobenzyl)-1,8-diazaspiro[4.5]decane-8-carboxylate]	–	# (# is < 25%)	# (# is < 25%)
O=C(COc1cc(CN2CCCC23CCN(C(=O)OC(C(F)(F)F)C(F)(F)F)CC3)cc(C(F)(F)F)c1)N1CCCC1 [Example 168, 1,1,1,3,3,3-Hexafluoropropan-2-yl 1-(3-(2-oxo-2-(pyrrolidin-1-yl)ethoxy)-5-(trifluoromethyl)benzyl)-1,8-diazaspiro[4.5]decane-8-carboxylate]	–	# (# is < 25%)	# (# is < 25%)
O=C(O)C1CCN(Cc2cc(CN3CCCC34CCN(C(=O)OC(C(F)(F)F)C(F)(F)F)CC4)cc(C(F)(F)F)c2)C1 (stereo not drawn) [Example 253]	–	# (# is < 25%)	# (# is < 25%)
O=C(OC(C(F)(F)F)C(F)(F)F)N1CCC2(CCCN2Cc2cccc(N3CCCCC3)c2Cl)CC1 [Example 80, 1,1,1,3,3,3-Hexafluoropropan-2-yl 1-(2-chloro-3-(piperidin-1-yl)benzyl)-1,8-diazaspiro[4.5]decane-8-carboxylate]	### (### is ≥ 75%)	–	–
O=C(OC(C(F)(F)F)C(F)(F)F)N1CCC2(CCN(Cc3ccc(Cl)cc3N3CCCC3)C2)CC1 [Example 17, 1,1,1,3,3,3-Hexafluoropropan-2-yl 2-(4-chloro-2-(pyrrolidin-1-yl)benzyl)-2,8-diazaspiro[4.5]decane-8-carboxylate]	–	# (# is < 25%)	# (# is < 25%)
O=C(O)C1CCN(c2cc(C(F)(F)F)ccc2CN2CCCC23CCN(C(=O)OC(C(F)(F)F)C(F)(F)F)CC3)C1 (stereo not drawn) [Example 199]	–	# (# is < 25%)	# (# is < 25%)
COc1ccc(F)cc1CN1CCCC12CCN(C(=O)OC(C(F)(F)F)C(F)(F)F)CC2 [Example 8, 1,1,1,3,3,3-Hexafluoropropan-2-yl 1-(5-fluoro-2-methoxybenzyl)-1,8-diazaspiro[4.5]decane-8-carboxylate]	### (### is ≥ 75%)	–	–
O=C(OC(C(F)(F)F)C(F)(F)F)N1CCC2(CCN(Cc3ccc(C(F)(F)F)cc3N3CC4COCC4C3)C2)CC1 (stereo not drawn) [Example 26, 1,1,1,3,3,3-Hexafluoropropan-2-yl 2-(2-(tetrahydro-1H-furo[3,4-c]pyrrol-5(3H)-yl)-4-(trifluoromethyl)benzyl)-2,8-diazaspiro[4.5]decane-8-carboxylate]	–	# (# is < 25%)	# (# is < 25%)
CCN1CCN(c2cc(C(F)(F)F)ccc2CN2CCCC23CCN(C(=O)OC(C(F)(F)F)C(F)(F)F)CC3)CC1 [Example 87, 1,1,1,3,3,3-Hexafluoropropan-2-yl 1-(2-(4-ethylpiperazin-1-yl)-4-(trifluoromethyl)benzyl)-1,8-diazaspiro[4.5]decane-8-carboxylate]	–	# (# is < 25%)	# (# is < 25%)
CN1CCN(c2c(Cl)cccc2CN2CC3(CCN(C(=O)OC(C(F)(F)F)C(F)(F)F)CC3)CC2(C)C)CC1 [Example 189, 1,1,1,3,3,3-Hexafluoropropan-2-yl 2-(3-chloro-2-(4-methylpiperazin-1-yl)benzyl)-3,3-dimethyl-2,8-diazaspiro[4.5]decane-8-carboxylate]	–	# (# is < 25%)	# (# is < 25%)
O=C(OC(C(F)(F)F)C(F)(F)F)N1CCC2(CCCN2Cc2ccc(Cl)cc2N2CCCCC2)CC1 [Example 74, 1,1,1,3,3,3-Hexafluoropropan-2-yl 1-(4-chloro-2-(piperidin-1-yl)benzyl)-1,8-diazaspiro[4.5]decane-8-carboxylate]	–	# (# is < 25%)	# (# is < 25%)
O=C(O)[C@@H]1CCCN(c2cc(C(F)(F)F)ccc2CN2CCC3(CCN(C(=O)OC(C(F)(F)F)C(F)(F)F)CC3)C2)C1 [Example 211]	–	# (# is < 25%)	# (# is < 25%)
O=C(OC(C(F)(F)F)C(F)(F)F)N1CCC2(CCCN2Cc2ccc(C(F)(F)F)cc2N2CCCC2)CC1 [Example 66, 1,1,1,3,3,3-Hexafluoropropan-2-yl 1-(2-(pyrrolidin-1-yl)-4-(trifluoromethyl)benzyl)-1,8-diazaspiro[4.5]decane-8-carboxylate]	–	# (# is < 25%)	# (# is < 25%)
O=C(OC(C(F)(F)F)C(F)(F)F)N1CCC2(CCN(Cc3ccc(Cl)cc3N3CC4COCC4C3)C2)CC1 (stereo not drawn) [Example 25, 1,1,1,3,3,3-Hexafluoropropan-2-yl 2-(4-chloro-2-(tetrahydro-1H-furo[3,4-c]pyrrol-5(3H)-yl)benzyl)-2,8-diazaspiro[4.5]decane-8-carboxylate]	–	# (# is < 25%)	# (# is < 25%)
O=C(OC(C(F)(F)F)C(F)(F)F)N1CCC2(CCCN2Cc2ccc(Cl)cc2N2CCN(CCF)CC2)CC1 [Example 19, 1,1,1,3,3,3-Hexafluoropropan-2-yl 1-(4-chloro-2-(4-(2-fluoroethyl)piperazin-1-yl)benzyl)-1,8-diazaspiro[4.5]decane-8-carboxylate]	–	# (# is < 25%)	# (# is < 25%)
O=C(OC(C(F)(F)F)C(F)(F)F)N1CCC2(CCCN2Cc2ccc(C(F)(F)F)cc2N2CC3CCC(C2)O3)CC1 [Example 73, 1,1,1,3,3,3-Hexafluoropropan-2-yl 1-(2-(8-oxa-3-azabicyclo[3.2.1]octan-3-yl)-4-(trifluoromethyl)benzyl)-1,8-diazaspiro[4.5]decane-8-carboxylate]	–	# (# is < 25%)	# (# is < 25%)
O=C(OC(C(F)(F)F)C(F)(F)F)N1CCC2(CCCN2Cc2ccc(C(F)(F)F)cc2N2CCN(CCF)CC2)CC1 [Example 20, 1,1,1,3,3,3-Hexafluoropropan-2-yl 1-(2-(4-(2-fluoroethyl)piperazin-1-yl)-4-(trifluoromethyl)benzyl)-1,8-diazaspiro[4.5]decane-8-carboxylate]	–	# (# is < 25%)	# (# is < 25%)
O=C(OC(C(F)(F)F)C(F)(F)F)N1CCC2(CCCN2Cc2cc(N3CCC(F)CC3)cc(C(F)(F)F)c2)CC1 [Example 45, 1,1,1,3,3,3-Hexafluoropropan-2-yl 1-(3-(4-fluoropiperidin-1-yl)-5-(trifluoromethyl)benzyl)-1,8-diazaspiro[4.5]decane-8-carboxylate]	–	# (# is < 25%)	# (# is < 25%)
CC1(C)CC2(CCN(C(=O)OC(C(F)(F)F)C(F)(F)F)CC2)CN1Cc1cccc(Cl)c1N1CCOCC1 [Example 54, 1,1,1,3,3,3-Hexafluoropropan-2-yl 2-(3-chloro-2-morpholinobenzyl)-3,3-dimethyl-2,8-diazaspiro[4.5]decane-8-carboxylate]	–	# (# is < 25%)	# (# is < 25%)
O=C(OC(C(F)(F)F)C(F)(F)F)N1CCC2(CCN(Cc3cccc(Cl)c3N3CCC(F)(F)CC3)C2)CC1 [Example 64, 1,1,1,3,3,3-Hexafluoropropan-2-yl 2-(3-chloro-2-(4,4-difluoropiperidin-1-yl)benzyl)-2,8-diazaspiro[4.5]decane-8-carboxylate]	–	# (# is < 25%)	# (# is < 25%)
O=C(OC(C(F)(F)F)C(F)(F)F)N1CCC2(CCCN2Cc2cc(OC3CCOCC3)cc(C(F)(F)F)c2)CC1 [Example 170, 1,1,1,3,3,3-Hexafluoropropan-2-yl 1-(3-(tetrahydro-2H-pyran-4-yloxy)-5-(trifluoromethyl)benzyl)-1,8-diazaspiro[4.5]decane-8-carboxylate]	–	# (# is < 25%)	# (# is < 25%)
